Square brackets hold non-standard residues; d marks the D form. Peptide text beside a SMILES is read from it. * marks the point of attachment. pGlu = O=C1CC[C@@H](C(=O)O)N1; Boc = CC(C)(C)OC(=O)*; Bz = O=C(c1ccccc1)*; ClAc = O=C(CCl)*
Tests used:
ACE [1] = biological target: T1, ACE (Oryctolagus cuniculus, UniProt P12822); conditions: cited from earlier work
T1 sequence (P12822 34-1310): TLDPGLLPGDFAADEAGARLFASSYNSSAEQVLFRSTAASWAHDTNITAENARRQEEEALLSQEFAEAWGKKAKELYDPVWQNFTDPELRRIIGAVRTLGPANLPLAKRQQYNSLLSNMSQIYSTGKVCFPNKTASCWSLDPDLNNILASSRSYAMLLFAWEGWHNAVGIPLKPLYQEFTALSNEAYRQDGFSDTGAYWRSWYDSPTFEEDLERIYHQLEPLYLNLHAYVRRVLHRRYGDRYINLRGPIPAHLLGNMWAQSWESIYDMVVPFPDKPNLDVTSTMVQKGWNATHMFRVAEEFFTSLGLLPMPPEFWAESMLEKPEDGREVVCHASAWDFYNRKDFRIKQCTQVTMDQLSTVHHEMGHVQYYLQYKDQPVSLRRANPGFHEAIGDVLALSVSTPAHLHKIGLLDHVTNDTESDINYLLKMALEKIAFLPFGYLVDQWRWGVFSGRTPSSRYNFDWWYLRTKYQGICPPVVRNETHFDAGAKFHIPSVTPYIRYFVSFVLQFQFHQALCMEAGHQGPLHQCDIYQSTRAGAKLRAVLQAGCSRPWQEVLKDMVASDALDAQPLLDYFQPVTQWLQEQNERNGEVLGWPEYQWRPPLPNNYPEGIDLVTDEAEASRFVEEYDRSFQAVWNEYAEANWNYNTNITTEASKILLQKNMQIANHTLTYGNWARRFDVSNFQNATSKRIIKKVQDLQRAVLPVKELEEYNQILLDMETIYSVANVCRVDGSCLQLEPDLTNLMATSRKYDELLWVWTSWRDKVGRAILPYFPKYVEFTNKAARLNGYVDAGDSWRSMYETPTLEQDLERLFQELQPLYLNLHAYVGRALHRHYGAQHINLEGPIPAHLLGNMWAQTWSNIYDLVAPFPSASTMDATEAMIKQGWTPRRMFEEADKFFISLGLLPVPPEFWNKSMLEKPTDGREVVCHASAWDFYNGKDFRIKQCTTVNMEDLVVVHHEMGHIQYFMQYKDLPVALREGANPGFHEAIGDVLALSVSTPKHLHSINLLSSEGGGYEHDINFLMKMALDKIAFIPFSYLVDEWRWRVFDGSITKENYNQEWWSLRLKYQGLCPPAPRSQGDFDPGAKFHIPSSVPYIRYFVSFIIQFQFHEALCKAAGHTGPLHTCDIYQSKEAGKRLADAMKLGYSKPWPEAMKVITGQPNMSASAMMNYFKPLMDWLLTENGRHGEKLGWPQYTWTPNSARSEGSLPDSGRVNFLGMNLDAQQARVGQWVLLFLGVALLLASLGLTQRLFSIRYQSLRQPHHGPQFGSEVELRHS

[2] = test system: enzyme isolated from hog lung (ACE); conditions: cited from earlier work
ACE [3] = biological target: T1, ACE; conditions: compared with a buffer presumably lacking chloride; cited from earlier work
[4] = Solvent extraction of substrate and remnant product from acidified reaction mixture; type: physicochemical; conditions: toluene and acidified reaction mixture in approximately equal volumes at room temperature
From the text: While a variety of organic solvents may be suitable for the extraction step, it is preferred to employ toluene.

[5] = sulfate ion 0.6 M in the presence of 0.1 M chloride, pH 8

Compound | ACE inhibition (ACE [1]) | further results
C[C@H](NC(=O)[C@H](Cc1ccccc1)NC(=O)OC(C)(C)C)C(=O)N1CCC[C@H]1C(=O)O [t-butyloxycarbonylPheAlaPro] (Boc-Phe-Ala-Pro-OH) | inhibit ACE | –
O=C(O)CNC(=O)CNC(=O)CNC(=O)c1ccccc1 [HipGlyGly] (Bz-Gly-Gly-Gly-OH) | – | hydrolysis in the absence of NaCl ([2]; Na2 SO4 0.001 M to 0.6 M, no NaCl): no hydrolysis; decrease of Km by sulfate [2, 5]: about 15%; increase of Vmax by sulfate [2, 5]: about 5 fold
C[C@H](NC(=O)[C@H](Cc1c[nH]c2ccccc12)NC(=O)[C@H](CCCCN)NC(=O)[C@@H]1CCC(=O)N1)C(=O)O [<GluLysTrpAla] ([pGlu]KWA-OH) | ACE inhibitors | –
C[C@H](NC(=O)[C@H](Cc1c[nH]c2ccccc12)NC(=O)[C@H](CCCCN)NC(=O)[C@@H]1CCC(=O)N1)C(=O)N1CCC[C@H]1C(=O)O [SQ20475, <GluLysTrpAlaPro] ([pGlu]KWAP-OH) | – | rate of cleavage in the presence of chloride (ACE [3]): more slowly
C[C@H](NC(=O)[C@H](Cc1c[nH]c2ccccc12)NC(=O)[C@@H]1CCC(=O)N1)C(=O)N1CCC[C@H]1C(=O)O [<GluTrpAlaPro] ([pGlu]WAP-OH) | ACE inhibitors | –
C[C@H](NC(=O)[C@H](Cc1ccccc1)NC(=O)CCl)C(=O)N1CCC[C@H]1C(=O)O [chloroacetylPheAlaPro] (ClAc-Phe-Ala-Pro-OH) | ACE inhibitors | –
O=C(N[C@@H](Cc1ccccc1)C(=O)O)c1ccccc1 [^3 H-benzoylPhe, benzoylPhe] | – | fraction entering the toluene phase [4]: Approximately 88%
C[C@H](NC(=O)[C@@H](N)Cc1ccccc1)C(=O)N1CCC[C@H]1C(=O)O [PheAlaPro] (H-Phe-Ala-Pro-OH) | inhibit ACE | –

Reference: patent publication US4276378A, “High sensitivity assays for angiotensin converting enzyme” (priority 1977, dated 1981)
